The text below walks through data of patent US8629282B2, “Heterocyclic compounds as S1P1 agonists for the treatment of autoimmune and vascular diseases” (Bristol-Myers Squibb Company, priority 2010, dated 2014).

Marks after values point to notes of the source that are not given here.

Assay [1] has as its target human S1P1 (Homo sapiens (Human), UniProt P21453). The experiment in a line: S1P1 Binding Assay (33P-S1P radioligand competition). Particulars: membranes of CHO cells expressing human S1P1, 0.03 nM 33P-S1P; rounded to two digits. The procedure: Membranes were prepared from CHO cells expressing human S1P1. Cells were dissociated in buffer containing 20 mM HEPES, pH 7.5, 50 mM NaCl, 2 mM EDTA and Protease Inhibitor cocktail (Roche), and disrupted on ice using the Polytron homogenizer. The homogenate was centrifuged at 20,000 rpm (48,000 G) and the supernatant was discarded. The membrane pellets were resuspended in buffer containing 50 mM HEPES, pH 7.5, 100 mM NaCl, 1 mM MgCl2, 2 mM EDTA and stored in aliquots at −80° C. after protein concentration determination.
Membranes (2 μg/well) and 0.03 nM final concentration of 33P-S1P ligand (1 mCi/ml, American Radiolabeled Chemicals) were added to the compound plates. Binding was performed for 45 minutes at room temperature, terminated by collecting the membranes onto GF/B filter plates, and radioactivity was measured by TOPCOUNT®. The competition data of the test compounds over a range of concentrations was plotted as percentage inhibition of radioligand specific binding. The IC50 is defined as the concentration of competing ligand needed to reduce specific binding by 50%.
The results in Table A were rounded to two digits.
Background: In a radioligand displacement assay an active substance lowers the binding of a labelled ligand.

For assay [2], the target named is S1P1 (membranes from S1P1/CHO cells) (Homo sapiens (Human), UniProt P21453). The experiment in a line: Receptor [35S] GTPγS Binding Assay, S1P1. Type of assay: biochemical. The note with it: for EC50: S1P1/CHO membranes; for GTPγS S1P3/S1P1 (ratio of GTPγS S1P3 EC50 to GTPγS S1P1 EC50): calculated from Table B, S1P3 detection limit 31250 nM. The procedure:
(§1) Receptor [35S] GTPγS Binding Assays
(§2) Compounds were loaded in a 384 FALCON® v-bottom plate (0.5 μl/well in a 3-fold dilution). Membranes prepared from S1P1/CHO cells or EDG3-Ga15-bla HEK293T cells were added to the compound plate (40 μl/well, final protein 3 μg/well) with MULTIDROP®. [^35S]GTP (1250 Ci/mmol, Perkin Elmer) was diluted in assay buffer: 20 mM HEPES, pH7.5, 10 mM MgCl2, 150 mM NaCl, 1 mM EGTA, 1 mM DTT, 10 μM GDP, 0.1% fatty acid free BSA, and 10 μg/ml Saponin to 0.4 nM. 40 μl of the [^35S] GTP solution was added to the compound plate with a final concentration of 0.2 nM. The reaction was kept at room temperature for 45 min. At the end of incubation, all the mixtures in the compound plate were transferred to a 384 well FB filter plates via GPCR robot system. The filter plate was washed with water 4 times by using the modified manifold Embla plate washer and dried at 60° C. for 45 min. 30 μl of MicroScint 20 scintillation fluid was added to each well for counting at Packard TOPCOUNT®. EC50 is defined as the agonist concentration that corresponds to 50% of the Ymax (maximal response) obtained for each individual compound tested.
A larger value for the GTPγS S1P3 EC50 value indicated less activity in the GTPγS S1P3 binding assay.

For assay [3], the target named is S1P3 (membranes from EDG3-Ga15-bla HEK293T cells) (Homo sapiens (Human), UniProt Q99500). The experiment in a line: Receptor [35S] GTPγS Binding Assay, S1P3. The note with it: detection limit 31250 nM. Type of assay: biochemical. The procedure:
as §1, §2
A smaller value for GTPγS S1P1 EC50 value indicated greater activity for the compound in the GTPγS S1P1 binding assay. A larger value for the GTPγS S1P3 EC50 value indicated less activity in the GTPγS S1P3 binding assay.
On the technique in general: GTPγS is a poorly hydrolysed GTP analogue; its binding reports G protein activation.

Assay [4] relates to circulating blood lymphocytes. The experiment in a line: Blood Lymphocyte Reduction Assay (BLR) in Rodents. The assay is classed as in vivo. Particulars: Lewis rats, oral, vs vehicle group. The procedure: Blood Lymphocyte Reduction Assay (BLR) in Rodents
Lewis rats were dosed orally with test article (as a solution or suspension in the vehicle) or vehicle alone (polyethylene glycol 300, “PEG300”). Blood was drawn at 4 hr by retro-orbital bleeding. Blood lymphocyte counts were determined on an ADVIA® 120 Hematology Analyzer (Siemens Healthcare Diagnostics). The results were measured as a reduction in the percentage of circulating lymphocytes as compared to the vehicle treated group at the 4 hr measurement. The results represent the average results of all animals within each treatment group (n=3-4).
The following examples were tested in the Blood Lymphocyte Reduction assay (BLR) described herein above and the results are shown in Table D for rats.

For orientation: IC50 means the point on the concentration scale where inhibition reaches its midpoint. Read a high IC50 as weaker potency. Broadly, the EC50 is the concentration at which the effect is half-maximal.

Chain of S1P1 (membranes from S1P1/CHO cells) (P21453 whole entry): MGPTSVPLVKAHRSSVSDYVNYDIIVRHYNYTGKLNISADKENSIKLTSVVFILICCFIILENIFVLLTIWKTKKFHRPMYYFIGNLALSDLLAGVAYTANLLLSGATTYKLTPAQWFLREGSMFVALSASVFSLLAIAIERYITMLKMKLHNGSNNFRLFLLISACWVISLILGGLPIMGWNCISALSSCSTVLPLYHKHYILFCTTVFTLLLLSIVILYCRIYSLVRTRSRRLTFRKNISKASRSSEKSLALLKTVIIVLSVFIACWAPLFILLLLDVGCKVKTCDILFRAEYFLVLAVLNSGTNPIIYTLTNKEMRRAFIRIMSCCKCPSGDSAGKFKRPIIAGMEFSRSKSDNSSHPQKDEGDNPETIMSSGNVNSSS
Chain of human S1P1 (P21453 whole entry): as above
Chain of S1P3 (membranes from EDG3-Ga15-bla HEK293T cells) (Q99500 whole entry): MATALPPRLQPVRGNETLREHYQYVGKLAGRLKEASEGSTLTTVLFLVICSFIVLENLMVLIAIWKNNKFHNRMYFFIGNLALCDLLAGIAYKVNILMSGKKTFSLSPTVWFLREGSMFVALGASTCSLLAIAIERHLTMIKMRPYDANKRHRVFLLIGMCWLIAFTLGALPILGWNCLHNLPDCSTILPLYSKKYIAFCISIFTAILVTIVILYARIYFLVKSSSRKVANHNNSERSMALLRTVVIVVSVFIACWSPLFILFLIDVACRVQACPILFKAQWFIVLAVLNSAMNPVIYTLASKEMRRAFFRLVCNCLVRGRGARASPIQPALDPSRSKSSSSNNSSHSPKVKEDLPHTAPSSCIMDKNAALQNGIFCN

As for `N[C@@H]1COc2cc(-c3noc(-c4onc(-c5ccccc5)c4C(F)(F)F)n3)ccc2[C@@H]1O` [Example 9, (3R,4S)-3-Amino-7-(5-(3-phenyl-4-(trifluoromethyl)isoxazol-5-yl)-1,2,4-oxadiazol-3-yl)chroman-4-ol], the IC50 in assay [1] came to 39 nM. The EC50 in assay [2] was found to be 33 nM; in assay [3], 8600 nM. Further, the “GTPγS S1P3/S1P1 (ratio of GTPγS S1P3 EC50 to GTPγS S1P1 EC50)” value in assay [2] is recorded as 260.
`O=C(O)[C@@H]1CCC[C@@H](N[C@@H]2COc3cc(-c4noc(-c5onc(-c6ccccc6)c5C(F)(F)F)n4)ccc3[C@@H]2O)C1` [Example 65, (1R,3R)-3-((3R,4S)-4-hydroxy-7-(5-(3-phenyl-4-(trifluoromethyl)isoxazol-5-yl)-1,2,4-oxadiazol-3-yl)chroman-3-ylamino)cyclohexanecarboxylic acid]: the IC50 in assay [1] came to 6.6 nM. Further, the EC50 in assay [2] was 1.1 nM; in assay [3] it was 11000 nM. The “GTPγS S1P3/S1P1 (ratio of GTPγS S1P3 EC50 to GTPγS S1P1 EC50)” value in assay [2] was 9600. In assay [4] (0.5 mg/kg), the “% Reduction in Lymphocytes at 4 hr.” value is 55%.
Consider `CCOC(=O)C1CCCC(N[C@@H]2COc3cc(-c4noc(-c5onc(-c6ccccc6)c5C(F)(F)F)n4)ccc3[C@@H]2O)C1` (relative stereo) [Example 13, ethyl 3-((3R*,4S*)-4-hydroxy-7-(5-(3-phenyl-4-(trifluoromethyl)isoxazol-5-yl)-1,2,4-oxadiazol-3-yl)chroman-3-ylamino)cyclohexanecarboxylate], for which the IC50 in assay [1] amounted to 630 nM. Moreover, in assay [2], the EC50 was 160 nM and the “GTPγS S1P3/S1P1 (ratio of GTPγS S1P3 EC50 to GTPγS S1P1 EC50)” value was > 200*. In assay [3], the EC50 is above 31000 nM.
For `O=C(O)C1(CN[C@@H]2COc3cc(-c4noc(-c5onc(-c6ccccc6)c5C(F)(F)F)n4)ccc3[C@@H]2O)CC1` [Example 30, 1-(((3R,4S)-4-hydroxy-7-(5-(3-phenyl-4-(trifluoromethyl)isoxazol-5-yl)-1,2,4-oxadiazol-3-yl)chroman-3-ylamino)methyl)cyclopropanecarboxylic acid] the same measures were 13 nM, 6.5 nM, 1200 and 8000 nM.
`N[C@@H]1COc2cc(-c3noc(-c4onc(-c5ccccc5)c4C(F)(F)F)n3)ccc2[C@H]1O` (relative stereo) [Example 4, (3R*,4R*)-3-amino-7-(5-(3-phenyl-4-(trifluoromethyl)isoxazol-5-yl)-1,2,4-oxadiazol-3-yl)chroman-4-ol]: in assay [2], the “GTPγS S1P3/S1P1 (ratio of GTPγS S1P3 EC50 to GTPγS S1P1 EC50)” value is 160.
For the compound `O=C(O)CN[C@@H]1COc2cc(-c3noc(-c4onc(-c5ccccc5)c4C(F)(F)F)n3)ccc2[C@@H]1O` [Example 68, 2-((3R,4S)-4-hydroxy-7-(5-(3-phenyl-4-(trifluoromethyl)isoxazol-5-yl)-1,2,4-oxadiazol-3-yl)chroman-3-ylamino)acetic acid], the IC50 in assay [1] is 3.8 nM. In assay [2], a half-maximal effect (EC50) was put at 5.4 nM and the “GTPγS S1P3/S1P1 (ratio of GTPγS S1P3 EC50 to GTPγS S1P1 EC50)” value was 960. For the same compound, in assay [3], the midpoint of the response, the EC50, lay at 5200 nM.
As for `N[C@@H]1COc2cc(-c3noc(-c4onc(-c5ccccc5)c4C(F)(F)F)n3)ccc2[C@H]1O` (racemic) [Example 4, (3R*,4R*)-3-amino-7-(5-(3-phenyl-4-(trifluoromethyl)isoxazol-5-yl)-1,2,4-oxadiazol-3-yl)chroman-4-ol], the IC50 in assay [1] was 23 nM. The EC50 was 80 nM in assay [2] and 13000 nM in assay [3].
Take `O=C(O)[C@H]1C[C@@H](N[C@H]2COc3cc(-c4noc(-c5onc(-c6ccccc6)c5C(F)(F)F)n4)ccc3[C@H]2O)C1` [Example 25, (1R,3S)-3-((3S,4R)-4-hydroxy-7-(5-(3-phenyl-4-(trifluoromethyl)isoxazol-5-yl)-1,2,4-oxadiazol-3-yl)chroman-3-ylamino)cyclobutanecarboxylic acid]: the EC50 in assay [3] came to 12000 nM. In assay [4] (3 mg/kg), the “% Reduction in Lymphocytes at 4 hr.” value stood at 93%.
As for `O=C(O)CCN[C@@H]1COc2cc(-c3noc(-c4onc(-c5ccccc5)c4C(F)(F)F)n3)ccc2[C@@H]1O` [Example 53, 3-((3R,4S)-4-Hydroxy-7-(5-(3-phenyl-4-(trifluoromethyl)isoxazol-5-yl)-1,2,4-oxadiazol-3-yl)chroman-3-ylamino)propanoic acid], in assay [3], a half-maximal response (EC50) required 22000 nM. This lies in the double-digit micromolar range.
As to `O=C(O)[C@H]1CCC[C@H](N[C@@H]2COc3cc(-c4noc(-c5onc(-c6ccccc6)c5C(F)(F)F)n4)ccc3[C@@H]2O)C1` [Example 57, (1S,3S)-3-((3R,4S)-4-hydroxy-7-(5-(3-phenyl-4-(trifluoromethyl)isoxazol-5-yl)-1,2,4-oxadiazol-3-yl)chroman-3-ylamino)cyclohexanecarboxylic acid], the IC50 in assay [1] amounted to 0.7 nM. Also, in assay [2], the midpoint of the response, the EC50, lay at 1 nM and the “GTPγS S1P3/S1P1 (ratio of GTPγS S1P3 EC50 to GTPγS S1P1 EC50)” value is 7300. This compound also returned an EC50 in assay [3] of 7300 nM. For the same compound, the “% Reduction in Lymphocytes at 4 hr.” value in assay [4] (0.5 mg/kg) is listed as 69%.
For the compound `O=C(O)C1(CN[C@@H]2COc3cc(-c4noc(-c5onc(-c6ccccc6)c5C(F)(F)F)n4)ccc3[C@@H]2O)CCCCC1` [Example 39, 1-(((3R,4S)-4-hydroxy-7-(5-(3-phenyl-4-(trifluoromethyl)isoxazol-5-yl)-1,2,4-oxadiazol-3-yl)chroman-3-ylamino)methyl)cyclohexanecarboxylic acid], the IC50 in assay [1] came out at 541 nM. Also, in assay [2], a half-maximal response (EC50) required 85 nM and the “GTPγS S1P3/S1P1 (ratio of GTPγS S1P3 EC50 to GTPγS S1P1 EC50)” value was > 370*. Also, the EC50 in assay [3] is above 31000 nM.
For `O=C(O)CC1CCCN([C@@H]2COc3cc(-c4noc(-c5onc(-c6ccccc6)c5C(F)(F)F)n4)ccc3[C@@H]2O)C1` (single isomer, unassigned) [Example 50] the same measures were 57 nM, 27 nM, 870 and 24000 nM.
Compound `O=C(O)CCN[C@H]1COc2cc(-c3noc(-c4onc(-c5ccccc5)c4C(F)(F)F)n3)ccc2[C@@H]1O` (racemic) [Example 5, 3-((3R*,4R*)-4-hydroxy-7-(5-(3-phenyl-4-(trifluoromethyl)isoxazol-5-yl)-1,2,4-oxadiazol-3-yl)chroman-3-ylamino)propanoic acid] returned an EC50 in assay [3] of 25000 nM.
Turning to `O=C(O)C1(CN[C@@H]2COc3cc(-c4noc(-c5onc(-c6ccccc6)c5C(F)(F)F)n4)ccc3[C@@H]2O)CCC1` [Example 41, 1-(((3R,4S)-4-hydroxy-7-(5-(3-phenyl-4-(trifluoromethyl)isoxazol-5-yl)-1,2,4-oxadiazol-3-yl)chroman-3-ylamino)methyl)cyclobutanecarboxylic acid], the IC50 in assay [1] stood at 20 nM. Besides, the EC50 turned out to be 16 nM in assay [2] and 8400 nM in assay [3]. Further, the “GTPγS S1P3/S1P1 (ratio of GTPγS S1P3 EC50 to GTPγS S1P1 EC50)” value in assay [2] is 510. The “% Reduction in Lymphocytes at 4 hr.” value in assay [4] (0.5 mg/kg) is 11%.
